{
  "source": "patent US11590117B2",
  "about": "“Treatment of a hematologic malignancy with 2-(4-chlorophenyl)-n-((2-(2,6-dioxopiperidin-3-yl)-1-oxoisoindolin-5-yl)methyl)-2,2-difluoroacetamide” (priority 2016, dated 2023)",
  "key": {"[1]": {"test_system": "PBMCs", "test": "CellTiter-Glo (CTG) cell proliferation assay, 72 hours, anti-CD3 stimulated", "assay_type": "cell-based, human", "settings": "for IC50: Homo sapiens, PBMC", "description": "Preparation of Solutions of Test Article: Compounds were plated into black 384-well plates (Corning Inc.) to a final DMSO volume of 0.1% assuming a maximal volume of 50 μL. A 10-point dose response starting at 10 μM with a 1:3 dilution was printed in duplicate by acoustic dispense using the EDC ATS-100 platform.\nCell Proliferation Assays: The effect of Compound 1 on the proliferation/viability of the hematological cell lines (Table 1 Table, Table 2 and Table 3), THLE-2, or PBMCs was assessed after 72 hours incubation using CTG (Promega), according to manufacturer's instructions. Hematological cell lines were dispensed into compound plates by a Multidrop™ Combi Reagent Dispenser (Thermo Scientific, Waltham, Mass.) at a concentration of 0.1 to 0.3×10^6 cells per mL in a 50 μL total volume. THLE-2 cells were seeded out at 1000 cells per well in 50 μL volume and incubated for 72 hours. At 72 hours, 25 μL per well of CTG was dispensed by a Multidrop™ Combi Reagent Dispenser and adenosine triphosphate (ATP) release by viable cells was measured as relative luminescence units after 30 minutes using the Envision platform.\nFor frozen PBMCs, cells were thawed at 37° C. for 2 minutes in RPMI with 10% FBS and cell counts and viability were measured on the ViCell as previously described. Peripheral blood mononuclear cells were washed and diluted to 1×10^6 cells per mL and dispensed by a Multidrop™ Combi Reagent Dispenser in a volume of 25 μL/well into the compound plates and incubated for 2 hours. After 2 hours, 25 μL of anti-CD3 antibody-bound beads (1 cell. 2 anti-human CD3 antibody-coated M-450 beads) were dispensed per well and incubated for a further 72 hours. After 72 hours, 15 μL of supernatants were collected for the analysis of interleukin (IL)-2 release using the Human IL-2 384-well Tissue Culture Kit (Meso Scale Diagnostics), according to the manufacturer's instructions, and the remaining cell suspension was processed with CTG.\nIn order to calculate the therapeutic window for Compound 1, the compound was counter-screened against the immortalized (but non-tumorigenic) human hepatocyte-derived cell line THLE-2 (Pfeifer, et al, Proc Natl Acad Sci USA 1993 90(11):5123-5127) and against primary human PBMCs. […] The Compound 1 therapeutic window for the 10 sensitive AML cell lines as compared to THLE-2 cells ranged from 4.1 (KG-1a) to 57 (HNT-34) (method 1) or from 5.7 (KG-1a) to 79.5 (HNT-34) (method 2); the Compound 1 therapeutic window as compared to PBMCs ranged from 2.6 (KG-1a) to 36 (HNT-34)), or from 1.5 (KG-1a) to 21 (HNT-34) (Table 6).\nCultures of 11 different AML cell lines were incubated 72 hours with Compound 1 at concentrations of 0.5 nM to 10 μM. Proliferation was assessed using the CellTitre-Glo® assay. Results for cultures incubated with Compound 1 were normalized to results for control cultures for each cell line. Inhibition of cell growth was also determined in THLE-2 cells at Compound 1 concentrations of 0.1 nM to 100 μM and in PBMCs at Compound 1 concentrations of 0.5 nM to […]. The Compound 1 therapeutic window was calculated using area under the curve (AUC; Activity Area [Barretina et al, Nature (2012) 483603-607] measurements (in arbitrary units) as determined using GraphPad Prism software for plots of cell proliferation vs concentration and dividing the AUC for the immortalized (but nontumorigenic) human THLE-2 hepatocyte cell line or PBMCs by the AUC for the AML cell line.\nThe effects of Compound 1 in healthy PBMCs were also assessed. Compound 1 was added to PBMC s from one donor at time zero and assessed at 72 hours. This was compared to PBMCs that were pre-activated and proliferating on anti-CD3 antibody-coated plates for 72 hours before Compound 1 was added and the cells were incubated for an additional 72 hours. HNT-34 cells were used as a sensitive positive control cell line. […]"}, "[2]": {"test_system": "OCI-AML3", "test": "Annexin V/7-AAD flow cytometry apoptosis assay", "assay_type": "cell-based, human", "settings": "OCI-AML3 (Compound 1-insensitive AML line)", "description": "Cell Apoptosis Assays: The ability of Compound 1 to induce apoptosis was assessed in selected AML cell lines and healthy PBMCs at the time points and compound concentrations indicated. For Annexin V/7-AAD readout by flow cytometry, AML cell lines were plated into flat bottom 96-well plates (BD Falcon) at a seeding density of 0.1 to 0.3×10^6 cells per mL in 200 μL complete media. Compound 1 was dispensed onto the plates and the cells were incubated for the times indicated. For frozen PBMCs, cells were thawed as previously described and plated at a seeding density of 1×10^6 cells per mL in 200 μL on Corning® BioCoat™ T-Cell Activation Anti-Human CD3 96-well plates (Corning Inc., Corning, N.Y.). Compound 1 was dispensed onto the plates and the cells were incubated for the times indicated. […] One hundred microliters of Annexin V/7-AAD buffer was added per well and the cells incubated for 15 minutes before being analyzed using the Attune Flow Cytometer (Life Technologies, Carlsbad, Calif.). For caspase 3/7 activity, the remaining 100 μL was incubated with CellEvent™ Caspase-3/7 Green ReadyProbes® Reagent (1:1000 dilution; Molecular Probes) for 15 minutes before being analyzed using the Attune Flow Cytometer. […]\nCompound 1 Induces Apoptosis in Acute Myeloid Leukemia Cell Lines. […] 0.01 μM and 0.1 μM and apoptosis was assessed over time."}},
  "note": "Read-outs that look alike come from different tables or passages of the source.",
  "data": [
    {"smiles": "O=C1CCC(N2Cc3cc(CNC(=O)C(F)(F)c4ccc(Cl)cc4)ccc3C2=O)C(=O)N1", "note": "(stereo not shown) [Compound 1, 2-(4-chlorophenyl)-N-((2-(2,6-dioxopiperidin-3-yl)-1-oxoisoindolin-5-yl)methyl)-2,2-difluoroacetamide]", "values": [
      {"measurement": "IC50", "setting": "[1]; 72 h, PBMCs not pre-activated, 72 hours, read-out: CTG IC50", "result": 100, "unit": "nM"},
      {"measurement": "IC50", "setting": "[1]; 72 h, pre-activated PBMCs (72 hours on anti-CD3 plates before compound), 72 hours, CTG and viable cell count, read-out: antiproliferative IC50", "result": "> 10000", "unit": "nM"},
      {"measurement": "IC50", "setting": "[1]; 72 h, primary human PBMCs, 72 hours, read-out: antiproliferative IC50", "result": 120, "unit": "nM"},
      {"measurement": "IC50", "setting": "[1]; pre-activated PBMCs, CTG and viable cell count, read-out: antiproliferative IC50", "result": "> 10000", "unit": "nM"},
      {"measurement": "AUC Method 1", "setting": "[1]; PBMCs normal cells", "result": 251.1, "unit": "arbitrary units"},
      {"measurement": "AUC Method 2", "setting": "[1]; PBMCs normal cells", "result": 145.1, "unit": "arbitrary units"},
      {"measurement": "induction of apoptosis", "setting": "[2]", "result": "did not induce apoptosis"}
    ]}
  ]
}
